# According to patent US20170107486A1, “HEPATOCYTE PRODUCTION VIA FORWARD PROGRAMMING BY COMBINED GENETIC AND CHEMICAL ENGINEERING” (Cellular Dynamics International, Inc., priority 2014, published 2017):
# What was measured:
# [1] = system: human rtTET-expressing ESCs transfected with GFH, H1ANR3 and TBX3; experiment: Hepatic programming efficiency, albumin (ALB) flow analysis; format: cell-based; conditions: for % ALB-expressing cells (hepatic programming efficiency): 0.5 μM added alone along with doxycycline between day 1 and day 7 post-plating, ALB flow analysis on day 13, FIG. 6
# Text: Genes that are either implicated in hepatic differentiation during normal mammalian development or enriched in adult hepatocytes were cloned into the PiggyBac vector (FIG. 3) under the control of the […] promoter (Table 1). To find transcription factors that are able to directly impose mature hepatic fate upon human ESCs, various combinations of transgene-expressing PiggyBac vectors along with the hPBase-expressing vector were introduced into the human ESCs having constitutive expression of rtTET through nucleofection (Minis Ingenio Electroporation solution: cat# MIR50114; program: Amaxa B-016). Nucleofected human ESCs were cultured on matrigel in mTeSR1 (Stem Cell Technologies). Following geneticin (100 μg/ml) selection for stable genomic transgene integration (cells were passaged at lease once prior to differentiation), human ESCs were individualized by accutase treatment and plated to matrigel-coated 12-well plates. Doxycycline (1 μg/ml) was added the next day to induce transgene expression in Hepatocyte Maintenance Medium (HMM, Lonza) supplemented with 0.5 μg/ml insulin, 0.1 μM dexamethasone (dex), and 50 ng/ml Oncostatin M (OSM). After transgene induction for the appropriate number of days, doxycycline was removed, and cells were allowed to transition to hepatocyte-like cells and were maintained in HMM supplemented with 0.5 μg/ml insulin, 0.1 μM dex, and 50 ng/ml OSM prior to characterization. Where appropriate, small molecules, such as MEK inhibitor PD0325901, […] kinase/activin receptor like kinase (ALK5) inhibitor A 83-01, and an analogue of the natural signaling molecule cyclic AMP 8-Bromoadenosine 3',5'-cyclic monophosphate (8-Br-cAMP), were added during hepatic programming. To determine the effect of MEK inhibitor PD0325901 (P) and TGFβ kinase/activin receptor like kinase (ALK5) inhibitor A 83-01 (A) on hepatic programming efficiency, human rtTET-expressing ESCs transfected with […]3 and TBX3 were plated on matrigel-coated 12-well plates at about 0.2×10^6 cells/well in mTeSR supplemented with 10 μM HA100 on day 0. PD0325901 (0.5 μM), A 83-01 (0.5 μM) or both were added along with doxycycline between day 1 and day 7 post-plating. Cells were collected for albumin (ALB) flow analysis on day 13 post-plating. […] To determine the effect of cyclic AMP analog 8-Br-cAMP on hepatic programming, human rtTET-expressing ESCs transfected with […]3 and TBX3 were plated on matrigel-coated 12-well plates at about 0.2×10^6 cells/well in mTeSR supplemented with 10 μM HA100 on day 0. Doxycycline (1 μg/ml), P and A were added between day 1 and day 7 post-plating. Following the removal of doxycycline, P and A on day 7, different concentrations of 8-Br-cAMP were added to promote hepatic transition. Cells were collected for ALB flow analysis on day 13 post-plating.
# [2] = system: MEK1 and MEK2; conditions: Bain et al., 2007; cited from earlier work
structure (smiles),measurement,setting,value
"Nc1ncnc2c1nc(Br)n2[C@@H]1O[C@@H]2COP(=O)(O)O[C@H]2[C@H]1O [8-Br-cAMP, 8-Bromoadenosine 3′,5′-cyclic monophosphate]",saturation concentration for improvement of hepatic programming,"[1]; added from day 7 after removal of doxycycline, P and A, ALB flow analysis day 13, FIG. 8",~200 µM
same,hepatic programming (ALB flow analysis),"[1]; different concentrations added from day 7 after removal of doxycycline, P and A, ALB flow analysis day 13, FIG. 8",significantly improved
Cc1cccc(-c2nn(C(=S)Nc3ccccc3)cc2-c2ccnc3ccccc23)n1 [A 83-01],% ALB-expressing cells (hepatic programming efficiency),[1],significantly improves
O=C(NOCC1CC1)c1ccc(F)c(F)c1Nc1ccc(I)cc1Cl [PD184352],specificity and potency compared to other known MEK inhibitors,[2],high degree of specificity and potency
O=C(NOC[C@H](O)CO)c1ccc(F)c(F)c1Nc1ccc(I)cc1F [PD0325901],% ALB-expressing cells (hepatic programming efficiency),[1],significantly improves
